Measurements reported in paper PMC7004151, “Synthesis and Structure‐Activity Relationships of N‐(4‐Benzamidino)‐Oxazolidinones: Potent and Selective Inhibitors of Kallikrein‐Related Peptidase 6” (Chemmedchem, 2019).

What was measured:
[1] = Microsomal intrinsic clearance, mouse liver microsomes; format: in vitro ADME
Procedure: Immediately, at time zero, then at 3, 6, 9, 15 and 30 min an aliquot (50 μL) of the incubation mixture was removed and mixed with acetonitrile (100 μL) to stop the reaction. Internal standard was added to all samples, the samples centrifuged to sediment precipitated protein and the plates then sealed prior to UPLC‐MS/MS analysis using a Quattro Premier XE (Waters Corporation, USA). XLfit (IDBS, UK) was used to calculate the exponential decay and consequently the rate constant (k) from the ratio of peak area of test compound to internal standard at each timepoint. The rate of intrinsic clearance (CLint) of each test compound was then calculated using the following calculation: CLint (mL/min/g liver)=k×V×Microsomal protein yield. Where V (mL/mg protein) is the incubation volume/mg protein added and microsomal protein yield is taken as 52.5 mg protein/g liver. Verapamil (0.5 μM) was used as a positive control to confirm acceptable assay performance.

[2] = biological target: T1, CYP1A2 (Homo sapiens, UniProt P05177); assay: Fluorescence-based CYP inhibition, CYP bactosomes; format: in vitro ADME; conditions: read-out: CYP Inhibition IC50 1A2
T1 construct: purchased Cypex; host or cells: bacterial membranes (bactosomes)
T1 sequence (P05177 1-516): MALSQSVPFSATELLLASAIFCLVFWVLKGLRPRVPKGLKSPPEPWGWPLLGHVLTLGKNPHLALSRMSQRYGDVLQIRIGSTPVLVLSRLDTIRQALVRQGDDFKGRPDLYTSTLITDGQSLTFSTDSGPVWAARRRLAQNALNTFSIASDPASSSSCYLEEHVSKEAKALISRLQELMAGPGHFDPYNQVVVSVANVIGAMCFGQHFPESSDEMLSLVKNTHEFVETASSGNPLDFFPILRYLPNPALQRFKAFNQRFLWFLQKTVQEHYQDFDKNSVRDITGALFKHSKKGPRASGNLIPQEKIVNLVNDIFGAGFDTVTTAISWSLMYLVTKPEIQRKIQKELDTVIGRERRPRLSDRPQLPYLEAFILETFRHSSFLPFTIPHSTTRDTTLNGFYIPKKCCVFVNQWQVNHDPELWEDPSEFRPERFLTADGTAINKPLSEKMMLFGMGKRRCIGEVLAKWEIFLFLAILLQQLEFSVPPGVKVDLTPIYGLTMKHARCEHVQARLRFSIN
Procedure: (§1) Fluorescence-based CYP Inhibition using recombinantly expressed CYP bactosomes: Fluorescence CYP inhibition studies were conducted at 37 °C in 96-well, flat-bottom, clear polystyrene plates. Incubation mixtures containing […] bactosomes (1000 pmol/mL, 10 mg/mL Cypex TM), fluorigenic substrate (Cypex TM) and 50 mM potassium phosphate buffer (pH 7.4) were prepared at the following final concentrations: CYP1A2, 5 pmol/mL+0.5 μM Ethoxyresorufin (ER); […] Bactosome control protein was included in reactions to give a final concentration of 0.025 mg/mL. Reaction times were verified to be within the limits of kinetics linearity. For each isoform, 220 μL of incubation mix was added to each well of a 96-well, flat-bottom, clear polystyrene plate. […] Reactions were initiated by the addition of 25 μL regenerating cofactor solution (23 mM Glucose-6-Phosphate, 2.2 mM NADP, 6 Units per ml Glucose-6-Phosphate Dehydrogenase (from Baker's yeast S. cerevisiae) in 2 % w/v NaHCO3, Sigma) and subsequent production of fluorescence metabolite measured at 1 min intervals over a 10 min period using a BMG Optima fluorescence detector (ER: Exc 530 nm, Em 590 nm, MFC: Exc 410 nm, Em 530 nm, CEC: Exc 410 nm, Em 530 nm, MAMC: Exc 405 nm, Em 460 nm, DEF: Exc 405 nm, Em 560 nm, 7BQ: Exc 485 nm, Em 530 nm). Fluorescence responses were adjusted to a percentage of uninhibited control before plotting against compound concentration and deriving the IC50 by fitting to a 4 parameter logistic regression model.

[3] = biological target: T2, CYP2D6 (Homo sapiens, UniProt P10635); assay: Fluorescence-based CYP inhibition, CYP bactosomes; format: in vitro ADME; conditions: read-out: CYP Inhibition IC50 2D6
T2 construct: purchased Cypex; host or cells: bacterial membranes (bactosomes)
Procedure: as §1

[4] = biological target: T3, CYP2C9 (Homo sapiens, UniProt P11712); assay: Fluorescence-based CYP inhibition, CYP bactosomes; format: in vitro ADME; conditions: read-out: CYP Inhibition IC50 2C9
T3 construct: purchased Cypex; host or cells: bacterial membranes (bactosomes)
Procedure: as §1

[5] = biological target: T4, CYP2C19 (Homo sapiens, UniProt P33261); assay: Fluorescence-based CYP inhibition, CYP bactosomes; format: in vitro ADME; conditions: recombinantly expressed CYP bactosomes (EasyCYP), pH 7.4, probe 3-Cyano-7-Ethoxycoumarin (CEC), 25 μM, read-out: CYP Inhibition IC50 2C19
T4 construct: purchased Cypex; host or cells: bacterial membranes (bactosomes)
Procedure: as §1

[6] = biological target: T5, CYP3A4 (Homo sapiens, UniProt P08684); assay: Fluorescence-based CYP inhibition, CYP bactosomes; format: in vitro ADME; conditions: read-out: CYP Inhibition IC50 3A4
T5 construct: purchased Cypex; host or cells: bacterial membranes (bactosomes)
Procedure: as §1

[7] = Kinetic aqueous solubility (laser nephelometry); format: physicochemical; conditions: Milli-Q water with […] DMSO, kinetic from dmso stock, 2.5 % DMSO
Procedure: Kinetic aqueous solubility: The aqueous solubility of the test compounds was measured using laser Nephelometry. Compounds were subjected to serial dilution from 10 mM to 0.5 mM in DMSO. An aliquot was then mixed with Milli‐Q water to obtain an aqueous dilution plate with a final concentration range of 250–12 μM, with a final DMSO concentration of 2.5 %. Triplicate aliquots were transferred to a flat bottomed polystyrene plate which was immediately read on the NEPHELOstar (BMG Lab Technologies). The amount of laser scatter caused by insoluble particulates (relative nephelometry units, RNU) was plotted against compound concentration using a segmental regression fit, with the point of inflection being quoted as the compounds aqueous solubility (μM).

[8] = biological target: T6, Human Factor Xa (Homo sapiens, UniProt P00742); assay: Factor Xa enzyme inhibition assay; format: biochemical; conditions: read-out: Factor Xa pIC50 (converted)
T6 construct: Human Factor Xa was purchased from Enzo Life Sciences; purchased Enzo Life Sciences
Procedure: Human thrombin was purchased from Biopur. Human trypsin was purchased from Polymun Scientific. Human Factor Xa was purchased from Enzo Life Sciences. Thrombin (20 nM), trypsin (0.000015 %) or Factor Xa (10 nM) were assayed in a similar manner to the KLKs but were incubated with compound for 20 min at room temperature in assay buffer (50 mM Tris HCl, pH 7.6, 100 mM NaCl, 1 mg/ml CHAPS, 0.05 % bovine serum albumin (BSA), 1 mM dithiothreitol (DTT)) before the addition of 5 μM, 2.5 μM or 1.5 μM Rhodamine 110 substrate (Cambridge bioscience ltd) respectively. Fluorescence intensity was then read at ex/em 485/535 following incubation for 1 h at room temperature (thrombin and factor Xa) or 20 min (trypsin).

T2 sequence (P10635 whole entry): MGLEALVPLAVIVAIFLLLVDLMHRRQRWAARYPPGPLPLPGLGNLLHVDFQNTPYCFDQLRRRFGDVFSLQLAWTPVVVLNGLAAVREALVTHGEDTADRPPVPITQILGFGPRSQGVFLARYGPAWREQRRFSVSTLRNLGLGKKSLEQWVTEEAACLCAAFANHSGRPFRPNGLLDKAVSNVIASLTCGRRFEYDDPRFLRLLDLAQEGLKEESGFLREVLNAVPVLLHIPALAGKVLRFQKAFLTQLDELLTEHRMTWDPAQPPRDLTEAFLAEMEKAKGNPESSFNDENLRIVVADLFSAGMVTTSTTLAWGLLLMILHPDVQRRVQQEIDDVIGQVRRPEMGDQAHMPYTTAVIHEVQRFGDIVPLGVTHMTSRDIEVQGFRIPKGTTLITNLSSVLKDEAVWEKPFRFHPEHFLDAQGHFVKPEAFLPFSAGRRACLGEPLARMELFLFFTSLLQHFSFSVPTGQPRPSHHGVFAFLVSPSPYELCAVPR
T3 sequence (P11712 whole entry): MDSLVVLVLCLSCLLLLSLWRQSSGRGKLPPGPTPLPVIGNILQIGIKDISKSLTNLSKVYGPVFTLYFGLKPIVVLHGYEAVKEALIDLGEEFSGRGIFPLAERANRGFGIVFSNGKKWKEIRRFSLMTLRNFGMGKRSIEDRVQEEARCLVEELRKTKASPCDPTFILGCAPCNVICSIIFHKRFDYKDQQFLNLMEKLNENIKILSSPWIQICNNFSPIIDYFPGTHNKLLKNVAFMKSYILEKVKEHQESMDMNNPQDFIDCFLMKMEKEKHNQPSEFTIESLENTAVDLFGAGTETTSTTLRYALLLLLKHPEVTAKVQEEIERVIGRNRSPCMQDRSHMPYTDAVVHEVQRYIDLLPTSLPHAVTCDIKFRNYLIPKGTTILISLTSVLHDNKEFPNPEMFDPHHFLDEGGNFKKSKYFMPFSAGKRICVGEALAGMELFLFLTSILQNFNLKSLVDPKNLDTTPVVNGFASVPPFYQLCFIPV
T5 sequence (P08684 whole entry): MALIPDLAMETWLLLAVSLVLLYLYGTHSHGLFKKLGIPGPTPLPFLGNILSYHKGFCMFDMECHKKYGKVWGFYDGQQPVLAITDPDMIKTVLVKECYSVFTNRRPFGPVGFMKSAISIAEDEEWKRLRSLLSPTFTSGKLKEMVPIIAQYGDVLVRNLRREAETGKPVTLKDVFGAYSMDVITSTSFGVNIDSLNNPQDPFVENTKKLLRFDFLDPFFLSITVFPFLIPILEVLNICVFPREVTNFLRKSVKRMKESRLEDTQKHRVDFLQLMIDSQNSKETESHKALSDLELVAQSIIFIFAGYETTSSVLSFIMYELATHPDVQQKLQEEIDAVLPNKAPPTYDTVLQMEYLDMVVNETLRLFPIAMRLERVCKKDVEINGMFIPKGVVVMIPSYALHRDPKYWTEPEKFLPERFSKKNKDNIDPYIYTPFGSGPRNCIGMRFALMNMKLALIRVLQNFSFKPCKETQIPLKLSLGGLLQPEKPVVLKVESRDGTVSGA
T6 sequence (P00742 235-488 limits assumed): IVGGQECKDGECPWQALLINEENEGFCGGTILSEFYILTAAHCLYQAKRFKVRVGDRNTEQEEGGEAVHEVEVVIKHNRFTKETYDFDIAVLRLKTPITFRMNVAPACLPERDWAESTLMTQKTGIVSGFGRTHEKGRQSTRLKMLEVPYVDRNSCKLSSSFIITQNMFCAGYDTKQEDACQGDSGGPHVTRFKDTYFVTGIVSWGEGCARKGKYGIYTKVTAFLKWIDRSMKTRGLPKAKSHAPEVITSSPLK
T6 sequence (P00742 41-179 partner limits assumed): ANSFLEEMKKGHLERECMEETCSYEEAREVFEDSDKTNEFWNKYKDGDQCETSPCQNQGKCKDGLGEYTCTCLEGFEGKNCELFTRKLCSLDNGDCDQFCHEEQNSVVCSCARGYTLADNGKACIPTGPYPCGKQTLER
T4 sequence (P33261 whole entry): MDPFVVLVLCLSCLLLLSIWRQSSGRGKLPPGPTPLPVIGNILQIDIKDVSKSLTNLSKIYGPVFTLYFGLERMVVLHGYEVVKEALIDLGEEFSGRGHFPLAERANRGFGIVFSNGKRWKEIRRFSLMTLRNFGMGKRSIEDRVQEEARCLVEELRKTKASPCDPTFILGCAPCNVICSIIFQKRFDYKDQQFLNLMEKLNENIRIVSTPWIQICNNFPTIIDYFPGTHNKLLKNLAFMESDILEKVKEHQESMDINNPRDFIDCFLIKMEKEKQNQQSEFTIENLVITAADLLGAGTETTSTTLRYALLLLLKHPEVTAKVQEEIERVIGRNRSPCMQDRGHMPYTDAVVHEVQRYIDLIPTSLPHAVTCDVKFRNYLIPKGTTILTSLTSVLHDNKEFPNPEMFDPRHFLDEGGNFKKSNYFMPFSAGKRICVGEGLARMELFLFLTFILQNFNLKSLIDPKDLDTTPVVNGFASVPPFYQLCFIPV

## CC[C@H](NC(=O)[C@H]1CN(c2ccc(C(=N)N)cc2)C(=O)O1)c1cccc2ccccc12 [Compound 32, (5R)‐3‐(4‐carbamimidoylphenyl)‐N‐((S)‐1‐(naphthalen‐1‐yl)propyl)‐2‐oxooxazolidine‐5‐carboxamide]
[1]
  Mouse CLint: 2.4 mL/min/g
[2]
  IC50: > 10 µM
[3]
  IC50: > 10 µM
[4]
  IC50: > 10 µM
[5]
  IC50 at 10 min: 7.9 µM
[6]
  IC50: 4.8 µM
[7]
  solubility kinetic: > 250 µM
[8]
  IC50: > 20 µM
